Measurements from patent US20210145801A1, “THERAPY FOR PROTEIN MISFOLDING DISEASE” (WREN THERAPEUTICS LIMITED, priority 2018, published 2021).
Where two headings read alike, the source gives them in different places.

Assays:
Aβ42 = target: T1, Aβ42 (Homo sapiens, UniProt P05067); assay: ThT kinetic assay of Aβ42 aggregation (unseeded); assay type: biochemical
T1 construct: made in house; host or cells: E. coli BL21 Gold (DE3)
Description: The recombinant Aβ(M1-42) peptide ([…]-SNKGAIIGLMVGGVVIA [SEQ ID NO: 1]), here called Aβ42, was expressed in the E. coli BL21 Gold (DE3) strain (Stratagene, Calif., U.S.A.) and purified as described previously with slight modifications. Briefly, the purification procedure involved sonication of E. coli cells, dissolution of inclusion bodies in 8 M urea, and ion exchange in batch mode on diethylaminoethyl cellulose resin and lyophylization. The lyophilized fractions were further purified using Superdex 75 HR 26/60 column (GE Healthcare, Buckinghamshire, U.K.) and eluates were analyzed using SDS-PAGE for the presence of the desired protein product. The fractions containing the recombinant protein were combined, frozen using liquid nitrogen, and lyophilized again.
Except for Netoglitazone, which was custom synthesised by GVK BIO, all small molecules were purchased with a purity greater than 99%. Small molecules were first solubilized in 100% DMSO to a concentration of 5 mM, and then diluted in the peptide solution to reach a final DMSO concentration of maximum 1-3%. We verified that the addition of DMSO in the reaction mixture has no effect on Aβ42 aggregation.
Solutions of monomeric peptides were prepared by dissolving the lyophilized Aβ42 peptide in 6 M GuHCl. Monomeric forms were purified from potential oligomeric species and salt using a Superdex 75 10/300 GL column (GE Healthcare) at a flowrate of 0.5 mL/min, and were eluted in 20 mM sodium phosphate buffer, pH 8 supplemented with 200 μM EDTA and 0.02% NaN3. The centre of the peak was collected, and the peptide concentration was determined from the absorbance of the integrated peak area using ε280=1490 L mol^−1 cm^−1. The obtained monomer was diluted with buffer to the desired concentration and supplemented with 20 μM Thioflavin T (ThT) from a 1 mM stock. All samples were prepared in low binding Eppendorf tubes on ice using careful pipetting to avoid introduction of air bubbles. Each sample was then pipetted into multiple wells of a 96-well half-area, low-binding, clear bottom and PEG coating plate (Corning 3881), 80 μL per well. Aβ42 kinetics have been performed in the absence or the presence of Netoglitazone, Mitoglitazone, Rosiglotazone, Rivoglitazone, Pioglitazone, Ciglitazone, Englitazone, Darglitazone, Troglitazone and Balaglitazone.
The time evolution of the total fibril mass concentration is described as a function only of the initial conditions and the rate constants of the system by the integrated rate law given by Eq. (54) in Cohen et al., J Chem Phys 135, 065106, 2011.
These are related to the rate of formation of new aggregates through primary pathways λ=√{square root over (2k+knm(0)^n^c)} and through secondary pathways κ=√{square root over (2k+k2m(0)^n^2^+1)}, where the initial concentration of soluble monomers is denoted by m(0), nc and n2 describe the dependencies of the primary and secondary pathways on the monomer concentration (nc=n2=2 for Aβ42), and kn, k+ and k2 are the rate constants of the primary nucleation, elongation and secondary nucleation, respectively (Cohen et al., Proc Natl Acad Sci USA, 110(24), 9758-63, 2013).
Inhibitors can interfere with the aggregation process by inhibiting one or more of the individual microscopic steps.

[1] = Pharmacokinetic study, single oral dose; assay type: in vivo, male, Swiss Albino mice; settings: 11.5 mg/kg p.o.; for concentration at 6 h: oral
Experimental: The pharmacokinetic profile was assessed in male, Swiss Albino mice in a discrete study using a single per oral dose of Netoglitazone (11.5 mg/kg, 30 μmoles/kg) formulated as a solution in 10% NMP/90% Solutol (as a 20% v/v solution in PBS). The dosing concentration was 2.3 mg/mL with a dosing volume of 5.0 mL/kg. Data were derived from the average of 3 animals per timepoint (terminal sampling). Plasma samples were collected at 0.25, 0.50, 1.0, 2.0, 4.0, 6.0, 8.0 and 24 hours by protein precipitation method with acetonitrile. Brain samples were collected at 6.0 and 24 hours by brain homogenisation and protein precipitation method with acetonitrile. Cerebrospinal fluid (CSF) samples were collected at 6.0 and 24 hours by protein precipitation method with acetonitrile. Samples were analysed using UHPLC with TOF mass spectrometry using electrospray ionisation.

[2] = male, Swiss Albino, mouse, plasma, po, single dose

T1 sequence (P05067 671-713): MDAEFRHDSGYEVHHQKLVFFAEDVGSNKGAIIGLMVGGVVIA

## O=C1NC(=O)C(Cc2ccc3cc(OCc4ccccc4F)ccc3c2)S1 (stereo not shown) [Netoglitazone]
Aβ42; 2 μM Aβ42, unseeded, fit of rate laws
  Effect on rate constants of primary (knk+) and secondary (k2k+) pathways: can affect both nucleation pathways in Aβ42 aggregation to different extents
Aβ42; 2 μM Aβ42, range of Netoglitazone concentrations
  Delay of Aβ42 aggregation (ThT fibril formation): substantial delay in Aβ42 aggregation was observed in a concentration-dependent manner
[1]
  Brain penetration across the blood brain barrier: good brain penetration across the blood brain barrier
[1]; male, Swiss Albino, mouse, CSF, read-out: CSF levels
  concentration at 6 h: 50 ng/mL
[1]; male, Swiss Albino, mouse, brain homogenate, read-out: Total brain levels
  concentration at 6 h: 8540 ng/g
[1]; [2]
  Cmax: 14400 ng/mL
  Tmax: 6 h
